Here are results for 18 compounds from patent US20190367516A1 (Bayer Pharma Aktiengesellschaft, priority 2015, published 2019).

SMILES strings stand for the structures. Like-named read-outs stand apart in the source and are kept apart here.

The target of the test is T1, human M2 receptor (Homo sapiens, UniProt P08172).
T1 sequence (P08172 1-466): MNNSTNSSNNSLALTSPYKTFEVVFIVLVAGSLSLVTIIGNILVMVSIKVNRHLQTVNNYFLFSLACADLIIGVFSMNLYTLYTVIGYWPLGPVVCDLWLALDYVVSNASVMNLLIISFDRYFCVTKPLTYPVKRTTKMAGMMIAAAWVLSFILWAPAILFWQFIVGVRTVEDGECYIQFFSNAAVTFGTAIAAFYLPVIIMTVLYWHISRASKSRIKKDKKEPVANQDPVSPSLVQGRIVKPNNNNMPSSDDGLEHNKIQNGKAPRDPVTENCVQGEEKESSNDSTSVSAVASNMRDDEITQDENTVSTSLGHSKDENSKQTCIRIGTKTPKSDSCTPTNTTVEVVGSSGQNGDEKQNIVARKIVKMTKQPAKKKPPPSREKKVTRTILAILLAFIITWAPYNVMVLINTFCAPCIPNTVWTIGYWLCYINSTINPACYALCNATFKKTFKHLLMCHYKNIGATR

Setting [1] is: Receptor activity EC50, allosteric potency at EC20 acetylcholine, M2-GIRK1/4 reporter cells, in some cases mean of two or more determinations.
[2] abbreviates: Receptor activity EC50, M2-GIRK1/4 activation test, acetylcholine at EC20, allosteric potency, in some cases mean values from two or more determinations.
[3] abbreviates: read-out: Efficiency, boosting of the acetylcholine effect at EC20 acetylcholine concentration, M2-GIRK1/4 reporter cells.

As a reminder, the EC50 is the midpoint of the concentration-response curve. Lower therefore signals greater potency. Under setting [1], `O=C(N[C@@H](C1CC1)C(F)(F)F)c1cn(-c2c(F)cc(F)cc2F)c2nc(N3C[C@H](O)[C@@H](O)C3)ccc2c1=O` [Example 642, N-[(1 S)-1-Cyclopropyl-2,2,2-trifluoroethyl]-7-[(3S,4S)-3,4-dihydroxypyrrolidin-1-yl]-4-oxo-1-(2,4,6-trifluorophenyl)-1,4-dihydro-1,8-naphthyridine-3-carboxamide] came in with a half-maximal effective concentration (EC50) of 72 nM. Besides, the Emax (read-out: Efficiency) came out at 100%.
Under setting [2], `CC(C)(NC(=O)c1cn(-c2ccc(F)cc2F)c2nc(N3CC[C@@H](O)C3)ccc2c1=O)c1c(F)cccc1F` [Example 21, 1-(2,4-Difluorophenyl)-N-[2-(2,6-difluorophenyl)propan-2-yl]-7-[(3R)-3-hydroxypyrrolidin-1-yl]-4-oxo-1,4-dihydro-1,8-naphthyridine-3-carboxamide] registered an EC50 of 145 nM.
In turn, `CC1(O)CCCN(c2ccc3c(=O)c(C(=O)N[C@@H](C4CC4)C(F)(F)F)cn(-c4c(F)cc(F)cc4F)c3n2)C1` (some centres unmarked) [Example 665, N-[(1 S)-1-Cyclopropyl-2,2,2-trifluoroethyl]-7-[3-hydroxy-3-methylpiperidin-1-yl]-4-oxo-1-(2,4,6-trifluorophenyl)-1,4-dihydro-1,8-naphthyridine-3-carboxamide] registered an EC50 under setting [1] of 73 nM. For the same compound, under setting [3], the Emax is 92.5%.
Turning to `O=C(N[C@@H](C1CC1)C(F)(F)F)c1cn(-c2c(F)cc(F)cc2F)c2nc(N3CC[C@H](O)C3=O)ccc2c1=O` [Example 467, N-[(1 S)-1-Cyclopropyl-2,2,2-trifluoroethyl]-7-[(3S)-3-hydroxy-2-oxopyrrolidin-1-yl]-4-oxo-1-(2,4,6-trifluorophenyl)-1,4-dihydro-1,8-naphthyridine-3-carboxamide], under setting [1], the midpoint of the response, the EC50, lay at 42 nM. Further, under setting [3], the Emax is 97.5%.
Regarding `O=C(NC(c1ccccc1Cl)C(F)(F)F)c1cn(-c2ccc(F)cc2F)c2nc(N3CC[C@H](O)C3=O)ccc2c1=O` (stereo partly drawn) [Example 298, N-[1-(2-Chlorophenyl)-2,2,2-trifluoroethyl]-1-(2,4-difluorophenyl)-7-[(3S)-3-hydroxy-2-oxopyrrolidin-1-yl]-4-oxo-1,4-dihydro-1,8-naphthyridine-3-carboxamide], under setting [2], the EC50 turned out to be 74 nM.
`O=C(NC(c1c(F)cccc1F)C(F)(F)F)c1cn(-c2ccc(F)cc2F)c2nc(N3CCC(O)CC3=O)ccc2c1=O` (single isomer, unassigned) [Example 253, 1-(2,4-Difluorophenyl)-N-[1-(2,6-difluorophenyl)-2,2,2-trifluoroethyl]-7-[4-hydroxy-2-oxopiperidin-1-yl]-4-oxo-1,4-dihydro-1,8-naphthyridine-3-carboxamide] gave a half-maximal effective concentration (EC50) under setting [2] of 483 nM.
`CC(C)(CC(F)(F)F)NC(=O)c1cn(-c2c(F)cc(F)cc2F)c2nc(N3CC(O)C4(CC4)C3)ccc2c1=O` (racemic) [Example 569, 7-[7-Hydroxy-5-azaspiro[2.4]hept-5-yl]-4-oxo-N-(4,4,4-trifluoro-2-methylbutan-2-yl)-1-(2,4,6-trifluorophenyl)-1,4-dihydro-1,8-naphthyridine-3-carboxamide] gave a concentration giving a half-maximal response (EC50) under setting [1] of 49 nM. For the same compound, the Emax under setting [3] came out at 100%.
`C[C@@H](COC(F)(F)F)NC(=O)c1cn(-c2c(F)cc(F)cc2Cl)c2nc(N3C[C@@H](O)[C@H](O)C3)ccc2c1=O` [Example 322, 1-(2-Chloro-4,6-difluorophenyl)-7-[(3R,4R)-3,4-dihydroxypyrrolidin-1-yl]-4-oxo-N-[(2S)-1-(trifluoromethoxy)propan-2-yl]-1,4-dihydro-1,8-naphthyridine-3-carboxamide] had a concentration giving a half-maximal response (EC50) under setting [2] of 40 nM.
Regarding `CC(NC(=O)c1cn(-c2c(F)cc(F)cc2F)c2nc(N3C[C@@H](O)CC3=O)ccc2c1=O)C(F)(F)C(F)(F)F` (mixture of isomers) [Example 529, 7-[(4S)-4-Hydroxy-2-oxopyrrolidin-1-yl]-4-oxo-N-[3,3,4,4,4-pentafluorobutan-2-yl]-1-(2,4,6-trifluorophenyl)-1,4-dihydro-1,8-naphthyridine-3-carboxamide], the midpoint of the response under setting [1], the EC50, lay at 6 nM. Also, the Emax under setting [3] is 96%.
Under setting [1], `CC[C@@H](NC(=O)c1cn(-c2ccc(F)cc2F)c2nc(N3C(=O)C(C)(C)C(O)C3C)ccc2c1=O)C(F)(F)F` (stereo partly drawn) [Example 657, 1-(2,4-Difluorophenyl)-7-[4-hydroxy-3,3,5-trimethyl-2-oxopyrrolidin-1-yl]-4-oxo-N-[(2R)-1,1,1-trifluorobutan-2-yl]-1,4-dihydro-1,8-naphthyridine-3-carboxamide] returned an EC50 of 100 nM. Further, the Emax under setting [3] stood at 85.3%.
As to `CN(C)c1ccc2c(=O)c(C(=O)NC34CC5CC(CC(C)(C5)C3)C4)cn(-c3ccc(F)cc3F)c2n1` [Example 41, 1-(2,4-Difluorophenyl)-7-(dimethylamino)-N-(3-methyltricyclo[3.3.1.1^3,7]dec-1-yl)-4-oxo-1,4-dihydro-1,8-naphthyridine-3-carboxamide], under setting [2], the concentration giving a half-maximal response (EC50) worked out at 39 nM.
`CC[C@@H](NC(=O)c1cn(-c2ccccc2C(F)(F)F)c2nc(N3C[C@@H](O)CC3=O)ccc2c1=O)C(F)(F)F` (single isomer, unassigned) [Example 269]: under setting [2], a half-maximal effect (EC50) was put at 210 nM.
For `CC(C)CC(NC(=O)c1cn(-c2ccc(F)cc2F)c2nc(N3CCS(=O)(=O)C3)ccc2c1=O)C(F)(F)F` (centres unmarked) [Example 78, 1-(2,4-Difluorophenyl)-7-(1,1-dioxido-1,3-thiazolidin-3-yl)-4-oxo-N-[1,1-trifluoro-4-methylpentan-2-yl]-1,4-dihydro-1,8-naphthyridine-3-carboxamide], a half-maximal effect under setting [2] (EC50) was put at 79 nM.
In turn, `O=C(N[C@@H](C1CC1)C(F)(F)F)c1cn(-c2c(F)cc(F)cc2F)c2nc(N3CCC[C@@H]3CO)ccc2c1=O` [Example 661, N-[(1 S)-1-Cyclopropyl-2,2,2-trifluoroethyl]-7-[(2R)-2-(hydroxymethyl)pyrrolidin-1-yl]-4-oxo-1-(2,4,6-trifluorophenyl)-1,4-dihydro-1,8-naphthyridine-3-carboxamide] came in with an EC50 under setting [1] of 48 nM. For the same compound, the Emax under setting [3] was found to be 95.5%.
With `CC(NC(=O)c1cn(-c2c(F)cc(F)cc2F)c2nc(N3C[C@@H](O)[C@H](O)C3)ccc2c1=O)C(F)(F)C(F)(F)F` (mixture of isomers) [Example 549, 7-[(3R,4R)-3,4-Dihydroxypyrrolidin-1-yl]-4-oxo-N-[3,3,4,4,4-pentafluorobutan-2-yl]-1-(2,4,6-trifluorophenyl)-1,4-dihydro-1,8-naphthyridine-3-carboxamide], the Emax (read-out: Efficiency) turned out to be 100%.
The compound `CC1(O)CCCN(c2ccc3c(=O)c(C(=O)NC45CC6CC(CC(C6)C4)C5)cn(-c4ccc(F)cc4F)c3n2)C1` (racemic) [Example 119, rac-1-(2,4-Difluorophenyl)-7-(3-hydroxy-3-methylpiperidin-1-yl)-4-oxo-N-(tricyclo[3.3.1.1^3,7]dec-1-yl)-1,4-dihydro-1,8-naphthyridine-3-carboxamide] yielded a half-maximal effective concentration (EC50) under setting [2] of 90 nM. This counts as double-digit nanomolar.
Turning to `CN(C)c1ccc2c(=O)c(C(=O)NC34CC5CC(C3)C(F)(F)C(C5)C4)cn(-c3ccc(F)cc3Cl)c2n1` [Example 40, 1-(2-Chloro-4-fluorophenyl)-N-(4,4-difluorotricyclo[3.3.1.1^3,7]dec-1-yl)-7-(dimethylamino)-4-oxo-1,4-dihydro-1,8-naphthyridine-3-carboxamide], a half-maximal effect under setting [2] (EC50) was put at 106 nM. This EC50 and that of the compound before are within 1.5-fold of each other.
Under setting [1], `CC(NC(=O)c1cn(-c2c(F)cc(F)cc2F)c2nc(N3C[C@@H](C)NC3=O)ccc2c1=O)C(F)(F)C(F)(F)F` (single isomer, unassigned) [Example 460] showed an EC50 of 5 nM. The compound also had an Efficiency (boosting of the acetylcholine effect at EC20 acetylcholine concentration, M2-GIRK1/4 reporter cells) of 98.0%.
